From PMC10266789 (The Journal of Clinical Investigation, 2023) come the findings set out here.

One may read the IC50 as the concentration at which inhibition is half-maximal. A word on the CC50: it is the concentration at which the toxic effect on the cells reaches its halfway point. Higher therefore signals better tolerance by the cells.

Series [1] relates to HCMV TB40/E-mCherry-UL99eGFP. The settings on record: Human betaherpesvirus 5, read-out: HCMV virus yield IC50.
In a further series the test system is HCMV TB40/E. Description: Human lung-only mouse model of HCMV infection. It is filed as in vivo, lung-only mice (NSG). The following applies: day 17; TCID50; FLS-359 50 mg/kg p.o. b.i.d.; ganciclovir 100 mg/kg i.p. daily; P < 0.04.
In series [2] the test system is Hepatitis B virus (genotype D, subtype ayw). Description: microbe, parasite or virus in culture. The following applies: Hepatocyte, read-out: IC50, Hepatitis B.
In series [3] the test system is Zika virus (strain DAK41525). The following applies: Zika/human HFF.
Series [4] in a line: Host cell cytotoxicity, PHH. The settings on record: human.
Series [5] can be described thus: Residual drug levels in MRC-5 cells and supernatant after washout, mass spectrometry. It is filed as in vitro ADME, human. The method, then: Supplemental Figure 8. […] (A) Uninfected cells
After 24h, supernatant was collected, monolayers were washed 3x to remove drug and cells were replenished with drug-free media.
Supernatants and cells were then assayed for residual drug levels at 2, 24 or 72h post-release. (B-C) Supernatant and cell-associated drug concentrations were determined by mass spectrometry. (D) […]
monolayer of MRC-5 cells. Sampling of the supernatant was conducted after a 24h incubation at 37°C, followed by 3X washes with PBS, collection of the final wash, and replenishment of drug-free medium to the dishes. Supernatant samples were then collected at 24 and 72h post drug-removal. […]
concentrations as determined by mass spectrometry. Mean +/- SD is shown (n=3).
(§1) (1 picture or pasted object on this page, not shown here)

Another series has as its target T1, recombinant human SIRT2 (Homo sapiens, UniProt Q8IXJ6).
T1 sequence (Q8IXJ6 39-352 limits assumed): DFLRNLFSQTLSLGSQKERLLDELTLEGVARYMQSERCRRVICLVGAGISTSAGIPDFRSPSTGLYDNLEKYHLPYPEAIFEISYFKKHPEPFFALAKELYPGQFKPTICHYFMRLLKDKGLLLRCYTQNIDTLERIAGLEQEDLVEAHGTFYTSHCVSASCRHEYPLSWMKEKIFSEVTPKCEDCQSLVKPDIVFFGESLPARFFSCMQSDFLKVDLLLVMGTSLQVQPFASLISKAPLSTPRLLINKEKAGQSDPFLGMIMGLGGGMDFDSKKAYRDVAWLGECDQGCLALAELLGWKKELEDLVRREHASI
In words: SIRT2 thermal stability (thermal shift) assay. The series is classed as binding. As to the method:
SIRT2 underwent thermal denaturation with a midpoint transition temperature (Tm) of approximately 48°C.
Thermal melt data were collected using custom instrumentation (Fluorescence Innovations), with either 405 nm or 532 nm laser excitation and fluorescence lifetime emission to measure total well fluorescence and fluorescence lifetime as a function of temperature. Data were treated as previously described ([37]) to determine the midpoint transition temperature, Tm.

A short description of series [6]: Host cell cytotoxicity, HFF. The following applies: human, HFF cells.
Series [7] has as its system HCMV TB40/E-mCherry-UL99eGFP. Description: HCMV virus yield at 72 hpi by TCID50 (3 IU/cell). The following applies: Figure 8C. It is filed as cell-based, human cytomegalovirus.
Series [8] has as its system SARS-CoV-2 (strain USA-WA1/2020). Description: microbe, parasite or virus in culture. The settings on record: Severe acute respiratory syndrome coronavirus 2, Calu-3, in Homo sapiens, read-out: IC50, SARS-CoV-2.
Series [9] has as its system c-Myc in MDA-MB-231 breast adenocarcinoma cells. Description: Western blot of c-Myc in MDA-MB-231 cells. It is filed as cell-based, human. The following applies: 72 hours. As to the method:
Supplemental Figure 1. […] (A) HepG2 cells were treated with FLS- […]
determined by western blot. Total a-tubulin was monitored as a control. (B) MDA-MB-231 cells or (C) MRC-5 fibroblasts were treated with drug for 72h and c-Myc was monitored by western blot with b-actin as a control. Western blots are representative of three independent experiments.
as §1

Where [10] appears, read: 72 hours after drug removal, treated 24 h with 5 µM.

For `Cc1cn(-c2ccc3c(c2)CN(c2ncc(Cc4ccc(-n5cccn5)cc4)s2)CC3)c(C)n1` [FLS-359, 7-(2,4-dimethyl-1H-imidazol-1-yl)-2-(5-{[4-(1H-pyrazol-1-yl)phenyl]methyl}-1,3-thiazol-2-yl)-1,2,3,4-tetrahydroisoquinoline], the IC50 is 0.56 µM in [1], 4.8 µM in [2] and 0.3 µM in series [8]. For the same molecule, in the series with HCMV TB40/E, the “production of infectious HCMV progeny in human lung implants” value is “significantly reduced the production of infectious HCMV progeny”. In addition, the “SI CC50/IC50” value in series [3] was 104.0. Also, the CC50 in series [4] is above 10 µM; in series [6], 41.6 µM. In addition, in series [5] (5 µM in medium, no cells), the “removal of drug from culture dishes without cells” value is recorded as “efficiently removed by washing”. In addition, in series [5] (setting [10]), the “drug level in cells” value was ~ 5 μM. Moreover, the “drug level in supernatant” value in series [5] (setting [10]) is recorded as ~ 0.4 μM. The results for the “increase of SIRT2 Tm” value at recombinant human SIRT2 (6.25 μM) and on recombinant human SIRT2 (12.5 μM) were 1.4 °C and 2.0 °C, respectively. The “production of infectious virus” value in series [7] (72 hpi, TCID50) is reported as “reduced the production of infectious virus to below the limit of quantification”. Further, the “reduction in infectious virus” value in series [7] (72 hours) is given as “more than 1,000 fold”. Also, the c-Myc protein level result in series [9] is “dramatically reduced”.
